Where two headings read alike, the source gives them in different places.
Legend:
THR-α = molecular target: T1, THR-α (Homo sapiens, UniProt P10827); assay: Test of the binding ability of the compound to TRα (TRα LBD/RXRα, biotin-SRC2-2 co-activating peptide, 665/615 nm fluorescence ratio); assay type: biochemical; conditions: for Emax: activity relative to positive control
T1 construct: TR-a LBD, GST purchased from Thermo Fisher; purchased Thermo Fisher PV4762
Protocol: (§1) 4.2 The activity percentage was calculated as follows: […]
(§2) RatioCompound: Average of the relative ratios of the compound wells of the embodiments
(§3) RatioPositive: Average of the relative ratios of all positive control wells.
(§4) RatioBlank: Average of the relative ratios of all negative control wells.
(§5) EC50 was calculated by fitting the relationship between activity (%) and compound logarithmic concentration with Graphpad 5.0 by a nonlinear regression method.
(§6) Y=Bottom+ (top-bottom)/(1+10^((LogEC50−X)*slope))
(§7) X: Compound logarithmic concentration Y: Percentage activity

THR-β = molecular target: T2, THR-β (Homo sapiens, UniProt P10828); assay: Test of the binding ability of the compound to TRβ (TRβ LBD/RXR, biotin-SRC2-2 co-activating peptide, 665/615 nm fluorescence ratio); assay type: biochemical; conditions: for Emax: activity relative to positive control; for α/β selectivity (multiple): calculated after being standardized with T3
T2 construct: TRB LBD, GST purchased from Thermo Fisher; purchased Thermo Fisher PV4762
T2 sequence (P10828 217-461 limits assumed, other chains not shown): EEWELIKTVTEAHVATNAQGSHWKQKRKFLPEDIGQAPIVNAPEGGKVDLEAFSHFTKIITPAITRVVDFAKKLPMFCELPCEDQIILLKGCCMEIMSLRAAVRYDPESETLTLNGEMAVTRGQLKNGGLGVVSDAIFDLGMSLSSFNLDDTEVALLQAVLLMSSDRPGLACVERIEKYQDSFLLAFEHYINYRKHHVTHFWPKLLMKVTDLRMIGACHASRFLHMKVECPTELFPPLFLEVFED
T2 sequence (P28702 whole entry partner, other chains not shown, the tested form may be a part): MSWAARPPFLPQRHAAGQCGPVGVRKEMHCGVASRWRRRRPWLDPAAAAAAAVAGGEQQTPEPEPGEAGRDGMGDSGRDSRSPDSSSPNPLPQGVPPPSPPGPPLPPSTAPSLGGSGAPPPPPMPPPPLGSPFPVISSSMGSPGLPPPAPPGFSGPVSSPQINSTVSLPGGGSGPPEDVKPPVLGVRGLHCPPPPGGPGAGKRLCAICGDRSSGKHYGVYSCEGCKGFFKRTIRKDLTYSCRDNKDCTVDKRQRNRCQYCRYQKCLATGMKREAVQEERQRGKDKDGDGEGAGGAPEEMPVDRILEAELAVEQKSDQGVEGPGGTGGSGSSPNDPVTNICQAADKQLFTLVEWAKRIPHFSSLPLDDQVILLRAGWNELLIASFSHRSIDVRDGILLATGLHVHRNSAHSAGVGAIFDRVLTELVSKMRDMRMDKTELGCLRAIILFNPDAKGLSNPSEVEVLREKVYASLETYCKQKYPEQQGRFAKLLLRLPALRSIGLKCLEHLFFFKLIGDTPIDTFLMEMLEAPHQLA
Protocol: 1. Main experimental materials and instruments:
Biotin-SRC2-2 co-activating peptide purchased from Sangon Biotech (Shanghai) Co., Ltd.
TRB LBD, GST purchased from Thermo Fisher (product No. PV4762)
Europium-conjugated anti-glutathione antibody purchased from Cisbio (product No. 61GSTKLB)
Streptavidin-D2 purchased from Cisbio (product No. 610SADAB)
as §1, §2, §3, §4, §5, §6, §7

[1] = Drug metabolism experiment on prodrug in SD rats: plasma pharmacokinetic parameters; assay type: in vivo; conditions: for concentration of prodrug in plasma / transformation of prodrug into the active parent drug after oral administration: oral 3 mg/kg, in words
Protocol: (§8) Test 3: Drug metabolism experiment on prodrug in SD rats
(§9) In the experiment, […] of 12 male SD rats having similar body weights were selected and orally administered compound 9, compound 10, and the control drug VK2809 (the prodrug of MB07444, structured as shown below) at a dose of 3 mg/kg at a single time, respectively, and blood and liver samples were collected at different time points.
(§10) Solutions of compound 9/compound 10 and VK2809 with a final concentration of 0.6 mg/mL were respectively prepared, and the ratio between the solvents used for the preparation was PEG400: pure water =50:50 (v/v).
(§11) No randomization was performed. The weights of the animals were measured before administration, and healthy animals with similar body weights were selected for inclusion in the experiment. The oral dose was 3 mg/kg.
(§12) At least 0.2 mL of blood was collected from the tail vein or jugular vein, and heparin sodium was used as the anticoagulant.
15 min, 30 min, 1 h, 2 h, 4 h, 6 h, 8 h, 24 h after administration.
(§13) After being collected, a blood sample was placed in a marked ice-water bath centrifuge tube, plasma was quickly separated by centrifugation under centrifugation conditions: 3500 rpm, 10 minutes, and 4° C., and the plasma was stored under −40° C. for testing.
(§14) Q TRAP6500 mass spectrometer with ESI source was used to perform negative ion MRM scanning. An LC-MS/MS analysis method was used to detect the contents of compound 9, compound 10 and its active metabolite 1, VK2809 and its active metabolite MB07444 in the plasma and liver. The metabolic kinetics data analysis software WinNonlin 7.0 was used to calculate the concentration data of plasma, and the non-compartmental model (NCA) method was used to calculate the pharmacokinetic parameters.

[2] = Drug metabolism experiment on prodrug in SD rats: concentration in liver compared with blood; assay type: in vivo; conditions: SD rats; for transformation of prodrug into active metabolite 1 in the liver: oral 3 mg/kg, in words; for concentration at 1 h / concentration at 4 h / concentration at 8 h / Kp at 1 h / Kp at 4 h / Kp at 8 h: male, rat, po, 3 mg/kg; for Kp at 1 h / Kp at 4 h / Kp at 8 h: read-out: Liver-to-blood ratio
Protocol: as §8, §9, §10, §11, §12, §13
After the liver sample was collected, its surface was washed with normal saline, dried with medical gauze, placed in a labeled small ziplock bag, and stored under −40° C. for testing.
as §14
The parameters of concentration in the livers of the SD rats and a comparison with the concentration in plasma are shown in Table 3 below: […]

[3] = plasma, oral 3 mg/kg Compound 9
[4] = male, Sprague-Dawley (SD), rat, plasma, po, 3 mg/kg, oral 3 mg/kg VK2809
[5] = male, Sprague-Dawley (SD), rat, plasma, po, 3 mg/kg, oral 3 mg/kg Compound 10

T1 sequence (P10827 163-410 isoform P10827-2 limits assumed, other chains not shown): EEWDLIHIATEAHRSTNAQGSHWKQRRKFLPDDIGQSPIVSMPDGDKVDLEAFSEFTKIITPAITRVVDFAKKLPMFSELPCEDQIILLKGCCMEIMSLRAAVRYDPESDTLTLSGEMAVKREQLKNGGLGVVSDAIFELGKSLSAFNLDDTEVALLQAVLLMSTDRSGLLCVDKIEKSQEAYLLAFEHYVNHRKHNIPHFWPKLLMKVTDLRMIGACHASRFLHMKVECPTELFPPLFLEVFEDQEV
T1 sequence (P19793 whole entry partner, other chains not shown, the tested form may be a part): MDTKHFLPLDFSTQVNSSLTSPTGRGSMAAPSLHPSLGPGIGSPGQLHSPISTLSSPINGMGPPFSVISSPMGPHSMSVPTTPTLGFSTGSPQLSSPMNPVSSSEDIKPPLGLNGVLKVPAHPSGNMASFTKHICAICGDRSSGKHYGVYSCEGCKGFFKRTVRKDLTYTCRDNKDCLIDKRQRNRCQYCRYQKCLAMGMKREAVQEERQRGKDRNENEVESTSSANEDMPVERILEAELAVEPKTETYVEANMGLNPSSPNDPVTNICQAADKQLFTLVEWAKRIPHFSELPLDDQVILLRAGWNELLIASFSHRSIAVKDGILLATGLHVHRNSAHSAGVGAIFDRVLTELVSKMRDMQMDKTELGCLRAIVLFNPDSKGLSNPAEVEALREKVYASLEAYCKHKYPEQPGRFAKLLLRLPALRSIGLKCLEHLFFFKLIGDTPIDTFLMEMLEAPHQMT

Structure (SMILES): Cc1cc(OCP(=O)(O)O)cc(C)c1Oc1ccc(O)c2c1CCC2(C)C [Compound 5, ((4-((7-hydroxy-1,1-dimethyl-2,3-dihydro-1H-indene-4-position)oxy)-3,5-dimethylphenoxy)methyl) phosphoric acid]
- EC50 (THR-α): < 0.2 µM
- Emax (THR-α): 102%
- EC50 (THR-β): < 0.1 µM
- Emax (THR-β): 110%

Structure (SMILES): Cc1cc(OC[P@@](=O)(N[C@@H](C)C(=O)OC(C)C)Oc2ccccc2)cc(C)c1Cc1ccc(O)c2c1CCC2(C)C [Compound 9]
- concentration of prodrug in plasma [1]: not high
- transformation of prodrug into the active parent drug after oral administration [1]: quickly transformed into the active parent drug compound 1
- AUC0−t [1, 3]: BLQ
- AUC0−∞ [1, 3]: BLQ
- Cmax [1, 3]: BLQ
- Ct Blood ([2]; 1 h, oral 3 mg/kg Compound 9): BLQ
- Ct Liver ([2]; 1 h, oral 3 mg/kg Compound 9): BLQ
- Ct Blood ([2]; 4 h, oral 3 mg/kg Compound 9): BLQ
- Ct Liver ([2]; 4 h, oral 3 mg/kg Compound 9): BLQ
- Ct Blood ([2]; 8 h, oral 3 mg/kg Compound 9): BLQ
- Ct Liver ([2]; 8 h, oral 3 mg/kg Compound 9): BLQ
- Ct Blood ([2]; 24 h, oral 3 mg/kg Compound 9): BLQ
- Ct Liver ([2]; 24 h, oral 3 mg/kg Compound 9): BLQ
- transformation of prodrug into active metabolite 1 in the liver [2]: rapidly metabolized in the liver to produce active metabolite compound 1

Structure (SMILES): Cc1cc(OCP(=O)(O)O)cc(C)c1Cc1ccc(O)c2ccccc12 [A, ((4-((4-hydroxynaphthyl-1-yl)methyl)-3,5-dimethylphenoxy)methyl) phosphoric acid, reference compound]
- EC50 (THR-α): 0.28 µM
- Emax (THR-α): 106%
- EC50 (THR-β): 0.109 µM
- Emax (THR-β): 100%
- α/β selectivity (multiple) (THR-β): 4.7 multiple

Structure (SMILES): Cc1cc(OC[P@@]2(=O)OCC[C@@H](c3cccc(Cl)c3)O2)cc(C)c1Cc1ccc(O)c(C(C)C)c1 [VK2809, reference compound]
- AUC(0-inf) [1, 4]: 83.3 ng·h/mL
- AUC(0-t) [1, 4]: 43.6 ng·h/mL
- Tmax [1, 4]: 6 h
- half-life [1, 4]: 4.81 h
- Cmax ([1]; male, Sprague-Dawley (SD), rat, plasma, po, 3 mg/kg, plasma, oral 3 mg/kg VK2809, read-out: Cmax): 9.9 ng/mL
- Kel ([1]; plasma, oral 3 mg/kg VK2809): 0.273 h⁻¹
- Ct Blood ([2]; 24 h, oral 3 mg/kg VK-2809): BLQ
- Ct Liver ([2]; 24 h, oral 3 mg/kg VK-2809): BLQ
- concentration at 1 h ([2]; Sprague-Dawley, liver, 1 h, oral 3 mg/kg VK-2809, read-out: Ct Liver): 39 ng/g
- concentration at 4 h ([2]; Sprague-Dawley, liver, 4 h, oral 3 mg/kg VK-2809, read-out: Ct Liver): 30 ng/g
- concentration at 8 h ([2]; Sprague-Dawley, liver, 8 h, oral 3 mg/kg VK-2809, read-out: Ct Liver): 17 ng/g
- Kp at 1 h ([2]; Sprague-Dawley, liver/plasma, 1 h, oral 3 mg/kg VK-2809): 8.6
- Kp at 4 h ([2]; Sprague-Dawley, liver/plasma, 4 h, oral 3 mg/kg VK-2809): 5.2
- Kp at 8 h ([2]; Sprague-Dawley, liver/plasma, 8 h, oral 3 mg/kg VK-2809): 4
- concentration at 1 h ([2]; Sprague-Dawley, plasma, 1 h, oral 3 mg/kg VK-2809, read-out: Ct Blood): 2.9 ng/g
- concentration at 4 h ([2]; Sprague-Dawley, plasma, 4 h, oral 3 mg/kg VK-2809, read-out: Ct Blood): 4.8 ng/g
- concentration at 8 h ([2]; Sprague-Dawley, plasma, 8 h, oral 3 mg/kg VK-2809, read-out: Ct Blood): 5.6 ng/g

Structure (SMILES): Cc1cc(OC[P@@]2(=O)OCC[C@@H](c3cccc(Cl)c3)O2)cc(C)c1Cc1ccc(O)c2c1CCC2(C)C [Compound 10]
- AUC(0-inf) [1, 5]: 89.3 ng·h/mL
- AUC(0-t) [1, 5]: 69.2 ng·h/mL
- Tmax [1, 5]: 4.67 h
- half-life [1, 5]: 1.73 h
- Cmax ([1]; male, Sprague-Dawley (SD), rat, plasma, po, 3 mg/kg, plasma, oral 3 mg/kg Compound 10, read-out: Cmax): 19.9 ng/mL
- concentration of prodrug in plasma [1]: not high
- transformation of prodrug into the active parent drug after oral administration [1]: quickly transformed into the active parent drug compound 1
- Kel ([1]; plasma, oral 3 mg/kg Compound 10): 0.428 h⁻¹
- Ct Blood ([2]; 24 h, oral 3 mg/kg Compound 10): BLQ
- Ct Liver ([2]; 24 h, oral 3 mg/kg Compound 10): BLQ
- transformation of prodrug into active metabolite 1 in the liver [2]: much better than that of VK2809
- Kp at 1 h ([2]; Sprague-Dawley (SD), liver / plasma (heading prints blood), 1 h, oral 3 mg/kg Compound 10): 16.2
- Kp at 4 h ([2]; Sprague-Dawley (SD), liver / plasma (heading prints blood), 4 h, oral 3 mg/kg Compound 10): 7.8
- Kp at 8 h ([2]; Sprague-Dawley (SD), liver / plasma (heading prints blood), 8 h, oral 3 mg/kg Compound 10): 4.7
- concentration at 1 h ([2]; Sprague-Dawley (SD), liver, 1 h, oral 3 mg/kg Compound 10, read-out: Ct Liver): 141 ng/g
- concentration at 4 h ([2]; Sprague-Dawley (SD), liver, 4 h, oral 3 mg/kg Compound 10, read-out: Ct Liver): 273 ng/g
- concentration at 8 h ([2]; Sprague-Dawley (SD), liver, 8 h, oral 3 mg/kg Compound 10, read-out: Ct Liver): 46.5 ng/g
- concentration at 1 h ([2]; Sprague-Dawley (SD), plasma (heading prints blood), 1 h, oral 3 mg/kg Compound 10, read-out: Ct Blood): 8.8 ng/g
- concentration at 4 h ([2]; Sprague-Dawley (SD), plasma (heading prints blood), 4 h, oral 3 mg/kg Compound 10, read-out: Ct Blood): 7.9 ng/g
- concentration at 8 h ([2]; Sprague-Dawley (SD), plasma (heading prints blood), 8 h, oral 3 mg/kg Compound 10, read-out: Ct Blood): 10.3 ng/g

Structure (SMILES): Cc1cc(OCP(=O)(O)O)cc(C)c1Cc1ccc(O)c2c1CCCC2(C)C [Compound 3]
- EC50 (THR-α): 0.27 µM
- Emax (THR-α): 105%
- EC50 (THR-β): 0.104 µM
- Emax (THR-β): 100%
- α/β selectivity (multiple) (THR-β): 4.8 multiple

Source: patent US12378268B2, “Heterocyclic THR-β receptor agonist compound and preparation method and use therefor” (Hepagene Therapeutics (HK) Limited, priority 2019, dated 2025)
